Data reported in US4591551A, “Radioenzymatic method for assaying normetanephrine and octopamine” (University of Southern California, priority 1984, dated 1986).

What was measured:
PNMT = assay: Isomer preference of normetanephrine as substrate for PNMT; format: biochemical, bovine; details: vs dl-normetanephrine
Procedure: (§1) PNMT was partially purified from bovine adrenal medulla according to the method of Henry et al, supra. In accordance with that procedure, thirty-three grams of medullary tissue are dissected from 15 fresh bovine adrenals and homogenized in 280 ml of 1.19 percent KCl solution. The homogenate is centrifuged at 40,000 g for one hour and the supernatant is filtered and recentrifuged at 100,000 g for one hour. To 250 ml of the supernatant are added 5 ml of 0.05M sodium phosphate buffer, pH 7.5 and 44 gm of solid ammonium sulfate. Another 19.8 gm of ammonium sulfate per 100 ml are added. The supernatant is discarded and the precipitate resuspended in 100 ml of 55 percent saturated ammonium sulfate--0.0125M sodium phosphate. The solution is recentrifuged and for each 100 ml of supernatant, 17 gm of ammonium sulfate are added. After centrifugation, the precipitate is resuspended in 50 ml of 0.005M tris, pH 7.4, containing 0.1 mM dithiothreitol and dialyzed in four liters of the buffer with four changes in a 16 hour period. The dialyzed enzyme is then centrifuged at 40,000 g for 10 minutes and frozen in small aliquots.
1-Normetanephrine is the preferred isomer as a substrate for PNMT and yielded about 1.5 times the activity of dl-normetanephrine. Thus, 1-normetanephrine should be used for calibration.

[1] = biological target: T1, phenylethanolamine-N-methyl transferase (Bos taurus, UniProt P10938); assay: Substrate specificity: cross reactivities of catecholamines and congeners in the radioenzymatic assay for plasma normetanephrine; format: biochemical, bovine; details: for % / Counts per Minute, Sample: 500 pg of amine added; for %: sample counts; for Counts per Minute, Sample: without normetanephrine internal standard, metanephrine band after TLC; for Percentage Interference: 500 pg of amine in assay for plasma normetanephrine; for Counts per Minute, Normetanephrine Standard: 500 pg of amine plus 250 pg of normetanephrine; for Normetanephrine: apparent normetanephrine from 500 pg of amine, calculated using 250 pg in the formula
T1 construct: PNMT was partially purified from bovine adrenal medulla; from tissue; host or cells: bovine adrenal medulla
T1 sequence (P10938 1-283): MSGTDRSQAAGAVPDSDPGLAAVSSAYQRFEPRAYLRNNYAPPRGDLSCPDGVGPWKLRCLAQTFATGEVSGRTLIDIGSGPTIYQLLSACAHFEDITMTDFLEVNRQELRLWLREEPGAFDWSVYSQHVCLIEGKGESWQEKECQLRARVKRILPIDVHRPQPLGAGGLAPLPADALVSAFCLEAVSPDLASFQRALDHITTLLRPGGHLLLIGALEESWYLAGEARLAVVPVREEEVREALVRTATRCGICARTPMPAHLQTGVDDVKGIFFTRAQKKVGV
Procedure: as §1
Duplicate aliquots (20-50 microliters) of the processed specimens were transferred to disposable culture tubes (13×100 mm); 10 ul of deionized water was added to one and the same volume of normetanephrine standard solution (100 pm) was added to the other. Two tubes of 50 microliters of 0.001N NCl were used for blanks instead of plasma for each assay run. The enzymatic reaction was initiated by the addition of a mixture of 10 ul each of 0.5M tris-HCl with 12.5 mM EDTA (pH 10.0), diluted tritiated […] (SAM-H^3 at 1.25 microCurie) and phenylethanolamine-N-methyl transferase prepared as above. The pH of the incubation mixture was 9.2. The incubation was carried out for sixty minutes at 37° C. and terminated by cooling in an ice bath and the addition of 100 ul of 0.5M borate buffer (pH 10.0) containing 5 micromole of metanephrine to facilitate the location of chromotography bands.
Radioactive products were extracted into 3 ml of toluene isoamyl-alcohol mixture (3:2) by agitation on a vortex mixer. The organic layer was separated by centrifugation, transferred to another set of tubes after quick freezing of the aqueous layer in a dry ice acetone bath and subsequently washed by 50 microliter of 0.5M borate buffer (pH 10.0) with similar procedures. Then the organic layer was transferred to a 15 ml centrifuge tube and the N-methylated products were back-extracted to 130 microliter of 0.1N acetic acid. After centrifugation, the organic layer was aspirated off and 100 microliter of the acetic acid phase was spotted on a silica gel plate with a multiple spotter. Thin layer chromatography was carried out in the chamber using as a developing solvent a mixture of tertiary amyl-alcohol, methylamine (40%), benzene (6:3:2, total 73.5 ml) for ninety minutes, in accordance with the procedure of Peuler and Johnson, supra. Then the plate was dried immediately. The metanephrine spot was marked under ultraviolet light, scraped off with a knife and transferred to a plastic vial containing 1 ml of 1N NH4 OH. Ten mls of ScintiVerse (obtained from the Fisher Scientific Co.) was added and the vial was left to stand for at least one hour prior to counting in a liquid scintillation counter. The plasma normetanephrine concentration was calculated from the radioactivity according to the formula given above.
Assays were conducted as in Example I using the solvent system of that example but in which the sample contained 250 pg of normetanephrine and in which there was added to the incubation mixture in individual tubes 10 microliters of the respective reagent listed in Table II.

[2] = format: physicochemical
Procedure: Blood specimens were collected into commercial vactainer tubes containing 15 milligrams EDTA for 10 ml of blood and placed on ice immediately. After centrifugation at 4° C., exactly 1 ml of plasma was transferred to a 10 ml test tube and kept in the freezer at -20° C. until the assay was performed. In this condition, plasma normetanephrine is stable for at least 2 months.

[3] = biological target: T1, phenylethanolamine-N-methyl transferase; assay: Radioenzymatic assay of octopamine in urine (counted as synephrine); format: biochemical, bovine
Procedure: The procedure of Examples I and II can be repeated but with the addition of 100 pg of octopamine in place of the 100 pg of normetanephrine as an internal standard, and by the addition of 5 micromole of unlabeled synephrine in place of the 5 micromole of metanephrine to facilitate chromatography band location. The pH of the incubation mixture is 9.3. The solvent system used is chloroform-ethanol-methylamine (40%) 16:3:2. In this case, synephrine bands are scraped into the scintillation vial and their counts per minute determined to yield the amount of octopamine, as synephrine.
A linear relationship was shown when octopamine was added either to urine or to water at 3-500 pg. Similarly, a linear relation was observed when both the synephrine and dimethyloctopamine were counted together after thin layer chromatography. These findings indicate that methylation of synephrine is proportioned to the added amount of octopamine and therefore validates the measurement of octopamine with this assay. When the synephrine was recovered from thin layer chromatography, it yielded a lower blank and therefore increased sensitivity. […] An additional wash with borate buffer (pH 10) and the use of chloroform-ethanol-methylamine as developing solvents further reduced the blank to a mean value of 56±7 cpm (N=13). Two and one-half octopamine in urine yields about 120-140 cpm. […]

SMILES | activity as substrate for PNMT relative to dl-normetanephrine (PNMT) | % [1] [%] | Counts per Minute, Sample [1] [Counts per Minute] | Percentage Interference [1] [%] | Counts per Minute, Normetanephrine Standard [1] [Counts per Minute] | Normetanephrine [1] [pg] | plasma normetanephrine is stable [2] | counts yielded by octopamine in urine ([3]; One hundred pg of octopamine in urine) | counts yielded by octopamine in urine ([3]; Two and one-half octopamine in urine)
COc1cc([C@@H](O)CN)ccc1O [1-Normetanephrine] | about 1.5 times | – | – | – | – | – | – | – | –
NCCc1ccc(O)c(O)c1 [Dopamine, dopamine] | – | 1.3 | 80 | 0 | 6130 | 0 | – | – | –
CNC[C@H](O)c1ccc(O)c(O)c1 [Epinephrine, epinephrine] | – | 1.3 | 80 | 0 | 6124 | 0 | – | – | –
CNCC(O)c1ccc(O)c(OC)c1 (stereo not drawn) [Metanephrine, metanephrine] | – | 2.9 | 180 | 0.7 | 6363 | 3.8 | – | – | –
NC[C@H](O)c1ccc(O)c(O)c1 [Norepinephrine, norepinephrine] | – | 1.6 | 101 | 0.1 | 6020 | 0.6 | – | – | –
COc1cc(C(O)CN)ccc1O (stereo not drawn) [Normetanephrine, normetanephrine] | – | – | – | – | – | – | at least 2 months | – | –
NCC(O)c1ccc(O)cc1 (stereo not drawn) [Octopamine, octopamine] | – | 11.8 | 726 | 4.9 | 7261 | 24.5 | – | 2,500-3,000 cpm | 120-140 cpm
CNCC(O)c1ccc(O)cc1 (stereo not drawn) [Synephrine, synephrine] | – | 4.2 | 262 | 1.5 | 6160 | 7.5 | – | – | –
NCCc1ccc(O)cc1 [Tyramine, tyramine] | – | 1.3 | 81 | 0 | 6090 | 0 | – | – | –
